System: MHV68
Assay: MHV68 replication in BMMs treated with TLR ligands (immunoblot of viral proteins)
Assay type: cell-based, Murine gammaherpesvirus 68
Settings: MOI=5, 48 hours, 10, 1 or 0.1 ng/ml lipid A, 100 nM CpG, 10 μg/ml PGN, 1, 0.1 or 0.01 μg/ml poly I:C
Method: (E) BMMs were infected with MHV68 (moi=5) and simultaneously treated with the indicated TLR ligands (100 nM CpG; 10, 1, or 0.1 ng/ml lipid A; 10 μg/ml PGN; or 1, 0.1, or 0.01 μg/ml poly I:C). After 48 hr, cells were harvested and analyzed for MHV68 replication proteins by immunoblotting using rabbit anti-MHV68 antibodies.
Murine gammaherpesvirus 68 (MHV68) was produced and titered as previously described (Wu, T.-T., Tong, L., Rickabaugh, T., Speck, S., and Sun, R. (2001), J. Virol. 75, 9262-9273). For infection of macrophages, cells were simultaneously treated with PAMPs and infected with MHV68 at an MOI of 5. Following an incubation period of 48 hours cells were lysed in Laemmli buffer and 10% of total volume was subjected to SDS-PAGE, transferred to nitrocellulose, and MHV68 proteins detected by western blotting.
BMMs were simultaneously infected with MHV68 (MOI=5) and treated with various TLR ligands (10, 1 or 0.1 ng/ml lipid A, 100 nM CpG, 10 μg/ml PGN or 1, 0.1, or 0.01 μg/ml poly I:C) for 48 hours, and replication of viral proteins was then assayed by western blot analysis. […] This was true whether BMMs were treated with 10 or 20 μg/ml PGN and the inhibition was always considerably weaker than that caused by either 1 ng/ml lipid A or 1 μg/ml poly I:C.

| Substance | inhibition of MHV68 replication |
| --- | --- |
| poly I:C | significantly inhibit MHV68 replication in a concentration dependent manner |
| lipid A | significantly inhibit MHV68 replication in a concentration dependent manner |
